In patent US5438062A, “Benzo(5,6)cycloheptapyridines, compositions and methods of use” (Schering Corporation, priority 1987, dated 1995):

Legend:
[1] = tested on: PAF-induced platelet aggregation (platelet-rich plasma); assay: PAF antagonism, in vitro platelet aggregation assay; assay type: cell-based; details: human PRP; for inhibition at 5 µM: dose 5 micromoles; for IC50: dose giving 50 % PAF antagonism, PAF 1-5×10^-8 M; for inhibition at 10 µM: dose 10 micromoles
Protocol: Blood was centrifuged at 110×g for 15 min. and the supernatant PRP carefully transferred into a polypropylene tube. Platelet-poor-plasma (PPP) was prepared by centrifuging PRP at 12,000×g for 2 min. in a Beckman Microfuge B. PRP was used within 3 hours of drawing the blood.
Platelet Aggregation Assay: When an aggregating agent such as PAF is added to PRP, platelets aggregate. An aggregometer quantifies this aggregation by measuring light (infra-red) transmission through PRP and comparing to PPP. The aggregation assays were performed using a dual-channel aggregometer (Model 440, Chrono-Log Corp., Hayertown, Pa.). PRP (0.45 ml) in aggregometer curettes was continually stirred (37° C.). Solutions of test compounds or vehicle were added to the PRP, and after incubation for 2 min., 10-15 μl aliquots of PAF solution were added so as to achieve a final concentration of 1-5×10^-8 M. Incubations were continued until the increase in light transmission reached a maximum (usually about 2 min). Values for inhibition were calculated by comparing maximal aggregation obtained in the absence and the presence of the compound. For each experiment, a standard PAF antagonist, such as alprazolam, was used as a positive internal control. […] The test results are shown below in Tables Ia, Ib and Ic.

[2] = tested on: histamine-induced lethality; assay: Antihistamine activity: prevention of histamine-induced lethality in guinea pigs; assay type: in vivo; details: Cavia porcellus, guinea pig; for responders at 1 mg/kg / responders at 5 mg/kg: 0.5 h, 1 hour before histamine 1.1 mg/kg i.v., read-out: Antihistaminic Activity, % Survival; for responders at 1 mg/kg: oral dose 1 mg/kg PO; for responders at 5 mg/kg: oral dose 5 mg/kg PO
Protocol: C. ANTIHISTAMINE ACTIVITY ASSAY
Prevention of Histamine-Induced Lethality in Guinea Pigs. Some of compounds shown below in Table I also were evaluated for antihistamine activity by their ability to protect female albino guinea pigs (250-350 g) against death induced by the intravenous injection of histamine dihydrochloride at 1.1 mg/kg, which is approximately twice the LD99. Doses of the antagonists were administered orally to separate groups of fasted animals 1 hour prior to the challenge with histamine and protection from death recorded for 30 minutes after histamine. ED50 values were determined for each drug by probit analysis.

[3] = CNS activity: antagonism of acetic acid writhing; details: mouse, in vivo; mice, oral, 15 minutes before acetic acid i.p.
Protocol: E. Antagonism of Acetic Acid Writhing. The acetic acid writhing test is a second test useful for determining CNS activity, and is essentially that described by HENDERSHOT and FORSAITH, J. Pharmac. […] Mice were injected with 0.6% aqueous acetic acid at 10 mg/kg i.p. 15 minutes after oral administration of the test drug. The number of writhes for each animal was counted during a 10 minute period starting 3 minutes after acetic acid treatment. A writhe was defined as a sequence of arching of the back, pelvic rotation and hind limb extension.

[4] = CNS activity: antagonism of electro-convulsive shock (ECS); details: mouse, in vivo; mice, oral, one hour before ECS; read-out: ECS test ED50
Protocol: F. Antagonism of Electro-Convulsive Shock (ECS). The ECS test is a third test useful for determining CNS activity. […] One hour after oral administration of the test drug or vehicle, mice were administered a 13 mA, 60 cycle a.c. electroconvulsant shock (ECS) for 0.2 seconds via corneal electrodes.

PAF-induced bronchospasm = PAF-induced bronchospasm in guinea pigs; assay type: in vivo; details: guinea pig, 3 mg/kg (iv)
Protocol: PAF is also a known bronchoconstrictive agent in mammals.
B. PAF-INDUCED BRONCHOSPASM IN GUINEA PIGS
Non-sensitized guinea Digs were fasted overnight, and the following morning were anesthetized with 0.9 ml/kg i.p. of dialurethane (0.1 g/ml of diallybarbituric acid, 0.4 g/ml of ethylurea and 0.4 g/ml of urethane). The trachea was cannulated and the animals were ventilated by a Harvard rodent respirator at 55 strokes/min. with a stroke volume of 4 ml. A side arm to the tracheal cannula was connected to a Harvard pressure transducer to obtain a continuous measure of intratracheal pressure, which was recorded on a Harvard Polygraph. The jugular vein was cannulated for the administration of compounds. The animals were challenged i.v. with PAF (0.4 ug/kg in isotonic saline containing 0.25% BSA) and the peak increase in inflation pressure that occurred within 5 min. after challenge was recorded. Test compounds were administered either orally (2 hrs. prior to PAF as a suspension in 0.4% methylcellulose vehicle) or intravenously (10 min. prior to PAF as a solution in dimethylsulfoxide).

CC(=O)N1CCC(=C2c3cc4ccccc4cc3CCc3cccnc32)CC1
inhibition at 5 µM [1]: 35%

CC(=O)N1CCC(=C2c3ccc(Cl)cc3C=Cc3cccnc32)CC1
IC50 [1]: 500 nM

CC(=O)N1CCC(=C2c3ccc(Cl)cc3CCc3cc(C)cnc32)CC1
inhibition at 0.12 µM ([1]; dose .12 micromoles): 44%

CC(=O)N1CCC(=C2c3ccccc3CCc3ccc[n+]([O-])c32)CC1
IC50 [1]: 1500 nM

CC(=O)N1CCC(=C2c3ccc(Cl)cc3CCc3ccc[n+](C)c32)CC1
inhibition at 5 µM [1]: 58%

CC(=O)N1CCC(=C2c3cc(F)c(F)cc3CCc3ccc[n+]([O-])c32)CC1
inhibition at 2.5 µM ([1]; dose 2.5 micromoles): 53%

CC(=O)N1CCC(=C2c3ccc(Cl)cc3CC(O)c3cccnc32)CC1 (stereo not drawn) [5-hydroxy-8-chloro-11-(1-acetyl-4-piperidylidene)-6,11-dihydro-5H-benzo[5,6]cyclohepta[1,2-b]pyridine]
IC50 [1]: 5000 nM

CC(=O)N1CCC(=C2c3ccc(Cl)cc3CC(C)c3cccnc32)CC1 (stereo not drawn) [5-methyl-8-chloro-11-[1-acetyl-4-piperidylidene]-5H-benzo[5,6]cyclohepta[1,2-b]pyridine]
IC50 [1]: 1000 nM

COCC(=O)N1CCN(C2c3ccc(Cl)cc3CCc3cccnc32)CC1 (stereo not drawn) [8-chloro-11-(1-methoxyacetyl-4-piperazinyl)-6,11-dihydro-5H-benzo[5,6]cyclohepta[1,2-b]pyridine]
IC50 [1]: 5000 nM

CCCC(=O)N1CCC(=C2c3ccc(Cl)cc3CCc3cccnc32)CC1 [8-chloro-11-(1-n-butyryl-4-piperidylidene)-6,11-dihydro-5H-benzo[5,6]cyclohepta[1,2-b]pyridine]
responders at 1 mg/kg [2]: 40% | responders at 5 mg/kg [2]: 100% | ED50 [3]: > 320 mg/kg | ED50 [4]: > 320 mg/kg

CC(=O)N1CCC(=C2c3ccc(Cl)cc3CC(=O)c3cccnc32)CC1 [8-chloro-11-[1-acetyl-4-piperidylidene]-6,11-dihydro-5H-benzo[5,6]cyclohepta[1,2-b]pyridin-5-one]
IC50 [1]: 1200 nM

CCC(=O)N1CCC(=C2c3ccc(Cl)cc3CCc3cccnc32)CC1 [R = CH2 CH2, R^3 = Cl, R^4 = H, Z = O, 8-chloro-11-(1-propionyl-4-piperidylidene)-6,11-dihydro-5H-benzo[5,6]cyclohepta[1,2-b]pyridine]
inhibition at 3 µM ([1]; dose 3 micromoles): 60% | responders at 1 mg/kg [2]: 40% | responders at 5 mg/kg [2]: 80% | ED50 [3]: > 320 mg/kg | ED50 [4]: > 320 mg/kg

COCC(=O)N1CCC(=C2c3ccc(Cl)cc3CCc3cccnc32)CC1 [R = CH2 OCH3, R^3 = Cl, R^4 = H, Z = O, 8-chloro-11-(1-methoxyacetyl-4-piperidylidene)-6,11-dihydro-5H-benzo[5,6]cyclohepta[1,2-b]pyridine]
IC50 [1]: 6000 nM | responders at 1 mg/kg [2]: 80% | responders at 5 mg/kg [2]: 80% | ED50 [3]: > 320 mg/kg | ED50 [4]: > 320 mg/kg

COCC(=O)N1CCC(=C2c3ccc(F)cc3CCc3cccnc32)CC1 [R = CH2 OCH3, R^3 = F, R^4 = H, Z = O, 8-fluoro-11-(1-methoxyacetyl-4-piperidylidene)-6,11-dihydro-5H-benzo[5,6]cyclohepta[1,2-b]pyridine]
inhibition at 10 µM [1]: 9% | responders at 1 mg/kg [2]: 100% | responders at 5 mg/kg [2]: 100% | ED50 [3]: < 320 mg/kg | ED50 [4]: < 320 mg/kg

CC(=O)N1CCC(=C2c3ccc(F)cc3CCc3cccnc32)CC1 [R = CH3, Z = O, R^3 = F, R^4 = H, 8-fluoro-11-(1-acetyl-4-piperidylidene)-6,11-dihydro-5H-benzo[5,6]cyclohepta[1,2-b]pyridine]
IC50 [1]: 700 nM | inhibition of PAF-induced bronchospasm (PAF-induced bronchospasm): 99% | responders at 5 mg/kg [2]: 20%

CCOC(=O)N1CCC(=C2c3ccc(Cl)cc3CCc3cccnc32)CC1 [R = OC2 H5, R^3 = Cl, R4 = H, Z = O, 8-chloro-6,11-dihydro-11-(1-ethoxycarbonyl-4-piperidylidene)-5H-benzo[5,6]cyclohepta[1,2-b]pyridine, reference compound]
ED50 ([2]; oral, probit analysis, read-out: Antihistaminic Activity, ED50): 0.19 mg/kg

CCSC(=O)N1CCC(=C2c3ccc(Cl)cc3CCc3cccnc32)CC1 [R = SCH2 CH3, R^3 = Cl, R^4 = H, Z = O, 8-chloro-11-[1-thioethoxycarbonyl-4-piperidylidene]-6,11-dihydro-5H-benzo[5,6]cyclohepta[1,2-b]pyridine]
inhibition at 10 µM [1]: 0% | responders at 1 mg/kg [2]: 100% | responders at 5 mg/kg [2]: 80% | ED50 [3]: > 320 mg/kg | ED50 [4]: > 320 mg/kg

CC(=O)N1CCC(=C2c3ccc(Br)cc3CCc3cccnc32)CC1 [R^3 = Br, R^4 = H, R = CH3, Z = O, 8-bromo-11-[1-acetyl-4-piperidylidene]-6,11-dihydro-5H-benzo[5,6]cyclohepta[1,2-b]pyridine]
IC50 [1]: 1200 nM

C=CC(=O)N1CCC(=C2c3ccc(Cl)cc3CCc3cccnc32)CC1 [R^3 = Cl, R^4 = H, R = CHCH2, Z = O, 8-chloro-11-[1-acryloyl-4-piperidylidene]-6,11-dihydro-5H-benzo[5,6]cyclohepta[1,2-b]pyridine]
inhibition at 25 µM ([1]; dose 25 micromoles): 63%

CNC(=O)N1CCC(=C2c3ccc(Cl)cc3CCc3cccnc32)CC1 [R^3 = Cl, R^4 = H, R = NHCH3, Z = O, 8-chloro-11-(1-methylaminocarbonyl-4-piperidylidene)-6,11-dihydro-5H-benzo[5,6]cyclohepta[1,2-b]pyridine]
inhibition at 50 µM ([1]; dose 50 micromoles): 29%

CC(=O)N1CCN(C2c3ccc(Cl)cc3CCc3cccnc32)CC1 (stereo not drawn) [R^3 = Cl, X = N, R = CH3, Z = O, R^4 = H, 8-chloro-11-(1-acetyl-4-piperazinyl)-6,11-dihydro-5H-benzo[5,6]cyclohepta[1,2-b]pyridine]
inhibition at 0.5 µM ([1]; dose .5 micromoles): 43%

O=CN1CCN(C2c3ccc(Cl)cc3CCc3cccnc32)CC1 (stereo not drawn) [R^3 = Cl, X = N, R = H, Z = O, R^4 = H, 8-chloro-11-(1-formyl-4-piperazinyl)-6,11-dihydro-5H-benzo[5,6]cyclohepta[1,2-b]pyridine]
IC50 [1]: 5000 nM

CC(=O)N1CCC(C2c3ccccc3CCc3cccnc32)CC1 (stereo not drawn) [R^3 = H, R^4 = H, R = CH3, Z = O, X = CH, 11-(1-acetyl-4-piperidyl)-6,11-dihydro-5H-benzo[5,6]cyclohepta[1,2-b]pyridine]
IC50 [1]: 5000 nM

O=C(c1ccccc1)N1CCC(=C2c3ccc(Cl)cc3CCc3cccnc32)CC1 [Z = O, R = Ph, R^3 = Cl, R^4 = H, 8-chloro-11-(1-benzoyl-4-piperidylidene)-6,11-dihydro-5H-benzo[5,6]cyclohepta[1,2-b]pyridine]
inhibition at 10 µM [1]: 9% | responders at 1 mg/kg [2]: 0% | responders at 5 mg/kg [2]: 100%

S=C(c1ccccc1)N1CCC(=C2c3ccc(Cl)cc3CCc3cccnc32)CC1 [Z = S, R = Ph, R^3 = Cl, R^4 = H, 8-chloro-11-(1-thiobenzoyl-4-piperidylidene)-6,11-dihydro-5H-benzo[5,6]cyclohepta[1,2-b]pyridine]
responders at 1 mg/kg [2]: 0% | responders at 5 mg/kg [2]: 60% | ED50 [3]: > 320 mg/kg | ED50 [4]: > 320 mg/kg
